A value given as a limit tells only on which side of the number the result lay.

For this experiment, the target named is SMYD3 (Homo sapiens (Human), UniProt Q9H7B4). In words: SMYD3 biochemical assay (SPA, 3H-SAM methylation of MEKK2 protein substrate). The settings on record: read-out: SMYD3 Biochem IC50 (μM)*. Summed up: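 Native full-length human SMYD3 (E. coli-expressed, tags removed) was preincubated with compound for 30 min at room temperature in 25 mM Tris-Cl pH 8.0, 1 mM TCEP, 0.005% BSG, 0.005% Tween 20. Reaction was started with 3H-SAM plus GST-MEKK2, quenched with 100 uM unlabeled SAM, and read by SPA scintillation counting.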
As a reminder, the IC50 is the concentration at which inhibition is half-maximal. As to `C[C@@H]1C[C@H](NC(=O)c2cc(C3CC3)on2)CCN1C(=O)CC(C)(C)CN` [compound 312, N-((2R,4R)-1-(4-amino-3,3-dimethylbutanoyl)-2-methylpiperidin-4-yl)-5-cyclopropylisoxazole-3-carboxamide], the IC50 was determined as 0.416 µM.

As to `C[C@@H]1C[C@@H](NC(=O)c2cc(C3CC3)on2)CCN1C(=O)CC(CN)c1ccccc1` (stereo partly drawn) [compound 313, N-((2R,4S)-1-(4-amino-3-phenylbutanoyl)-2-methylpiperidin-4-yl)-5-cyclopropylisoxazole-3-carboxamide], the 50% inhibitory concentration (IC50) is 5.02 µM.

On to `C[C@H]1C[C@@H](NC(=O)c2cc(C3CC3)on2)CCN1S(=O)(=O)c1ccc(Cl)nc1` [compound 318, N-((2S,4S)-1-((6-chloropyridin-3-yl)sulfonyl)-2-methylpiperidin-4-yl)-5-cyclopropylisoxazole-3-carboxamide], for which the IC50 stood at 1.88 µM.

For the compound `CCOC(=O)CS(=O)(=O)N1CC[C@H](NC(=O)c2cc(C3CC3)on2)C[C@H]1C` [compound 320, ethyl 2-(((2R,4S)-4-(5-cyclopropylisoxazole-3-carboxamido)-2-methylpiperidin-1-yl)sulfonyl)acetate], the IC50 is above 10 µM.

Take `C[C@@H]1C[C@@H](NC(=O)c2cc(C3CC3)on2)CCN1S(=O)(=O)c1ccccn1` [compound 321, 5-cyclopropyl-N-((2R,4S)-2-methyl-1-(pyridin-2-ylsulfonyl)piperidin-4-yl)isoxazole-3-carboxamide]: the IC50 is 4.47 µM.

Turning to `CCCS(=O)(=O)N1CC[C@@H](NC(=O)c2cc(C3CC3)on2)C[C@@H]1C` [compound 322, 5-cyclopropyl-N-((2S,4R)-2-methyl-1-(propylsulfonyl)piperidin-4-yl)isoxazole-3-carboxamide], the IC50 is above 10 µM.

In the case of `CC(C)CS(=O)(=O)N1CC[C@@H](NC(=O)c2cc(C3CC3)on2)C[C@@H]1C` [compound 323, 5-cyclopropyl-N-((2S,4R)-1-(isobutylsulfonyl)-2-methylpiperidin-4-yl)isoxazole-3-carboxamide], the IC50 was above 10 µM.

Regarding `C[C@H]1C[C@H](NC(=O)c2cc(C3CC3)on2)CCN1S(=O)(=O)N1CCN(C)CC1` [compound 324, 5-cyclopropyl-N-((2S,4R)-2-methyl-1-((4-methylpiperazin-1-yl)sulfonyl)piperidin-4-yl)isoxazole-3-carboxamide], the IC50 worked out at 1.65 µM.

On to `C[C@H]1C[C@H](NC(=O)c2cc(C3CC3)on2)CCN1S(=O)(=O)Cc1cccnc1` [compound 325, 5-cyclopropyl-N-((2S,4R)-2-methyl-1-((pyridin-3-ylmethyl)sulfonyl)piperidin-4-yl)isoxazole-3-carboxamide], for which the IC50 was above 10 µM.

As to `C[C@H]1C[C@H](NC(=O)c2cc(C3CC3)on2)CCN1S(=O)(=O)CCc1ccccc1` [compound 326, 5-cyclopropyl-N-((2S,4R)-2-methyl-1-(phenethylsulfonyl)piperidin-4-yl)isoxazole-3-carboxamide], the IC50 is above 10 µM.

As to `COCCCS(=O)(=O)N1CC[C@@H](NC(=O)c2cc(C3CC3)on2)C[C@@H]1C` [compound 327, 5-cyclopropyl-N-((2S,4R)-1-((3-methoxypropyl)sulfonyl)-2-methylpiperidin-4-yl)isoxazole-3-carboxamide], the IC50 was above 10 µM.

For `CC1CN(C(=O)CCCN)CC(C)C1NC(=O)c1cc(C2CC2)on1` (centres unmarked) [compound 332, N-(1-(4-aminobutanoyl)-3,5-dimethylpiperidin-4-yl)-5-cyclopropylisoxazole-3-carboxamide], the IC50 was found to be 2.53 µM.

Consider `C[C@H]1C[C@@H](NC(=O)c2cc(C3CC3)on2)CCN1C(=O)CC(CN)c1ccccc1` (stereo partly drawn) [compound 338, N-((2S,4S)-1-(4-amino-3-phenylbutanoyl)-2-methylpiperidin-4-yl)-5-cyclopropylisoxazole-3-carboxamide], for which the IC50 amounted to 0.842 µM.

In the case of `C[C@H]1C[C@H](NC(=O)c2cc(C3CC3)on2)CCN1C(=O)CC(CN)c1ccccc1` (stereo partly drawn) [compound 339, N-((2S,4R)-1-(4-amino-3-phenylbutanoyl)-2-methylpiperidin-4-yl)-5-cyclopropylisoxazole-3-carboxamide], the half-inhibitory concentration (IC50) is 4.67 µM.

On to `C[C@@H]1C[C@H](NC(=O)c2cc(C3CC3)on2)CCN1C(=O)C1CCCC(CN)C1` (stereo partly drawn) [compound 342, N-((2R,4R)-1-(3-(aminomethyl)cyclohexane-1-carbonyl)-2-methylpiperidin-4-yl)-5-cyclopropylisoxazole-3-carboxamide], for which the IC50 worked out at 0.552 µM.

Regarding `C[C@@H]1C[C@@H](NC(=O)c2cc(C3CC3)on2)CCN1C(=O)C1CCCC(CN)C1` (stereo partly drawn) [compound 343, N-((2R,4S)-1-(3-(aminomethyl)cyclohexane-1-carbonyl)-2-methylpiperidin-4-yl)-5-cyclopropylisoxazole-3-carboxamide], the IC50 amounted to 1.07 µM.

As to `C[C@@H]1C[C@@H](NC(=O)c2cc(C3CC3)on2)CCN1S(=O)(=O)CCc1ccccc1` [compound 344, 5-cyclopropyl-N-((2R,4S)-2-methyl-1-(phenethylsulfonyl)piperidin-4-yl)isoxazole-3-carboxamide], the IC50 is above 10 µM.

With `C[C@@H]1C[C@@H](NC(=O)c2cc(C3CC3)on2)CCN1S(=O)(=O)CCC(F)(F)F` [compound 345, 5-cyclopropyl-N-((2R,4S)-2-methyl-1-((3,3,3-trifluoropropyl)sulfonyl)piperidin-4-yl)isoxazole-3-carboxamide], the IC50 is above 10 µM.

`C[C@H]1C[C@H](NC(=O)c2cc(C3CC3)on2)CCN1S(=O)(=O)N(C)C` [compound 346, 5-cyclopropyl-N-((2S,4R)-1-(N,N-dimethylsulfamoyl)-2-methylpiperidin-4-yl)isoxazole-3-carboxamide]: the 50% inhibitory concentration (IC50) was above 10 µM.

`CCCCS(=O)(=O)N1CC[C@@H](NC(=O)c2cc(C3CC3)on2)C[C@@H]1C` [compound 347, N-((2S,4R)-1-(butylsulfonyl)-2-methylpiperidin-4-yl)-5-cyclopropylisoxazole-3-carboxamide]: the IC50 was found to be 8.02 µM.

In the case of `C[C@@H]1C[C@@H](NC(=O)c2cc(C3CC3)on2)CCN1S(=O)(=O)c1ccccc1` [compound 353, 5-cyclopropyl-N-((2R,4S)-2-methyl-1-(phenylsulfonyl)piperidin-4-yl)isoxazole-3-carboxamide], the IC50 was 3.98 µM.

In the case of `C[C@@H]1C[C@@H](NC(=O)c2cc(C3CC3)on2)CCN1S(=O)(=O)c1cccc(C#N)c1` [compound 355, N-((2R,4S)-1-((3-cyanophenyl)sulfonyl)-2-methylpiperidin-4-yl)-5-cyclopropylisoxazole-3-carboxamide], the concentration for half-maximal inhibition (IC50) was 0.278 µM.

For `NCCCC(=O)N1CCC(NC(=O)c2cc(C3CC3)on2)C(C(F)(F)F)C1` (centres unmarked) [compound 356, N-(1-(4-aminobutanoyl)-3-(trifluoromethyl)piperidin-4-yl)-5-cyclopropylisoxazole-3-carboxamide], the IC50 came to 1.21 µM.

As for `C[C@@H]1CC(NC(=O)c2cc(C3CC3)on2)CCN1C(=O)[C@@H](CN)Cc1ccc(O)cc1` (stereo partly drawn) [compound 357, N-((2R)-1-((R)-3-amino-2-(4-hydroxybenzyl)propanoyl)-2-methylpiperidin-4-yl)-5-cyclopropylisoxazole-3-carboxamide], the IC50 was 1.17 µM.

For the compound `C[C@H](C(=O)N1CC[C@@H](NC(=O)c2cc(C3CC3)on2)C[C@@H]1C)C1CCNCC1` [compound 358, 5-cyclopropyl-N-((2S,4R)-2-methyl-1-((S)-2-(piperidin-4-yl)propanoyl)piperidin-4-yl)isoxazole-3-carboxamide], the IC50 came out at 3.4 µM.

On to `C[C@@H](C(=O)N1CC[C@@H](NC(=O)c2cc(C3CC3)on2)C[C@@H]1C)C1CCNCC1` [compound 359, 5-cyclopropyl-N-((2S,4R)-2-methyl-1-((R)-2-(piperidin-4-yl)propanoyl)piperidin-4-yl)isoxazole-3-carboxamide], for which the IC50 came out at 1.46 µM.

Turning to `O=C(N[C@@H]1CCN(C(=O)CC2CCNCC2)C[C@@H]1CO)c1cc(C2CC2)on1` [compound 362, 5-cyclopropyl-N-((3S,4R)-3-(hydroxymethyl)-1-(2-(piperidin-4-yl)acetyl)piperidin-4-yl)isoxazole-3-carboxamide], the IC50 was determined as 2.95 µM.

On to `N[C@H]1CC[C@H](C(=O)N2CC[C@@H](NC(=O)c3cc(C4CC4)on3)C[C@@H]2CO)CC1` [compound 363, N-((2R,4R)-1-((1r,4R)-4-aminocyclohexane-1-carbonyl)-2-(hydroxymethyl)piperidin-4-yl)-5-cyclopropylisoxazole-3-carboxamide], for which the IC50 worked out at 1.99 µM.

As to `N[C@H]1CC[C@H](C(=O)N2CC[C@H](NC(=O)c3cc(C4CC4)on3)C[C@H]2Cc2ccccc2)CC1` [compound 364, N-((2R,4S)-1-((1r,4R)-4-aminocyclohexane-1-carbonyl)-2-benzylpiperidin-4-yl)-5-cyclopropylisoxazole-3-carboxamide], the half-inhibitory concentration (IC50) was found to be 4.57 µM.

On to `C[C@H]1C[C@H](NC(=O)c2cc(C3CC3)on2)CCN1C(=O)c1cccc(C(C)(C)N)c1` [compound 366, N-((2S,4R)-1-(3-(2-aminopropan-2-yl)benzoyl)-2-methylpiperidin-4-yl)-5-cyclopropylisoxazole-3-carboxamide], for which the IC50 was 2.75 µM.

Take `C[C@H]1C[C@H](NC(=O)c2cc(C3CC3)on2)CCN1C(=O)c1ccc(C(C)(C)N)cc1` [compound 369, N-((2S,4R)-1-(4-(2-aminopropan-2-yl)benzoyl)-2-methylpiperidin-4-yl)-5-cyclopropylisoxazole-3-carboxamide]: the concentration for half-maximal inhibition (IC50) is 5.87 µM.

As to `C[C@@H]1C[C@@H](NC(=O)c2cc(C3CC3)on2)CCN1C(=O)c1ccc(C(C)(C)N)cc1` [compound 371, N-((2R,4S)-1-(4-(2-aminopropan-2-yl)benzoyl)-2-methylpiperidin-4-yl)-5-cyclopropylisoxazole-3-carboxamide], the IC50 is 4.95 µM.
